# How the values were obtained:
# [1] = test system: Radical scavenging activity; assay: Antioxidant activity assessed as DPPH radical scavenging activity; type: functional
# [2] = Antioxidant activity assessed as ABTS radical scavenging activity by decolorization assay; type: functional
# HL-60 = assay: Cytotoxicity against human HL60 by MTT assay; type: functional, cell-based
# HepG2 = assay: Cytotoxicity against human HepG2 by MTT assay; type: functional, cell-based
IC50 [1] [µM],IC50 [2] [µM],SMILES,IC50 (HL-60) [µM],IC50 (HepG2) [µM]
> 200,> 200,C/C=C(/C)C(=O)OCc1c(C(C)=O)c(O)c(OC)c2c1[C@@H](C)CC=C2,,
> 200,> 200,C/C=C(/C)C(=O)OCc1c(C(C)=O)c(O)c(OC)c2c1[C@@H](C)[C@@H](O)C=C2,,
> 200,> 200,C/C=C(/C)C(=O)OCc1c(C(C)=O)c(O)c(OC)c2c1[C@@H](C)[C@@H]1O[C@@H]1[C@H]2O,,
> 200,> 200,C/C=C(/C)C(=O)OCc1c2c(c(OC)c3occ(C)c13)C(=O)[C@H]1O[C@H]1[C@@H]2C,49.8,27.8
> 200,> 200,CCCCCCCCCCCCCCCC(=O)O[C@H]1CC(C)(C)C2=CC(=O)O[C@]2(C)C1,47.5,
,,CO[C@@]12[C@H](COC(N)=O)C3=C(C(=O)C(C)=C(N)C3=O)N1C[C@@H]1N[C@@H]12 [MITOMYCIN],1.5,5.4
13.2,13.2,Cc1c(C)c2c(c(C)c1O)CCC(C)(C(=O)O)O2 (configuration not stated) [TROLOX],,

# Reference: ChEMBL document CHEMBL1641394, “Terpenoids from the aerial parts of Parasenecio deltophylla” (J Nat Prod, 2010)
